Reference: US20050192221A1, “Methods and compositions related to plunc polypeptides” (priority 2003, published 2005)
Converted amounts (≈) assume the structure as drawn. “And” between values parts separate entries of the source, which are not always exact repeats. Equal values may be shown once. “Also recorded” adds a separate entry of the source. Read-outs that look alike come from different tables or passages of the source.

Tests used:
[1] = tested on: Staphylococcus aureus; conditions: cited from earlier work; for MIC50 / MIC90: unit assumed
[2] = tested on: Enterococcus spp.; conditions: unit assumed; cited from earlier work
[3] = tested on: Streptococcus agalactiae; conditions: cited from earlier work
[4] = tested on: Bacteroides fragilis; conditions: cited from earlier work
[5] = tested on: Streptococcus pneumoniae; conditions: in µg/mL (unit assumed); cited from earlier work
[6] = tested on: Haemophilus parainfluenzae; conditions: cited from earlier work
[7] = tested on: Enterococcus faecium; conditions: unit assumed; cited from earlier work
[8] = tested on: Neisseria gonorrhoeae; conditions: in µg/mL (unit assumed), cited from earlier work
[9] = tested on: Borrelia burgdorferi; conditions: unit assumed; cited from earlier work
[10] = tested on: Streptococcus pyogenes; conditions: in µg/mL (unit assumed); cited from earlier work
[11] = tested on: Bordetella bronchiseptica; conditions: cited from earlier work
[12] = tested on: Haemophilus influenzae; conditions: in µg/mL (unit assumed), cited from earlier work
[13] = tested on: Listeria monocytogenes; conditions: unit assumed; cited from earlier work
[14] = tested on: Haemophilus ducreyi; conditions: unit assumed; cited from earlier work
[15] = tested on: Campylobacter pylori; conditions: cited from earlier work
[16] = tested on: Campylobacter jejuni; conditions: in µg/mL (unit assumed); cited from earlier work
[17] = tested on: Neisseria meningitidis; conditions: cited from earlier work
[18] = tested on: Bacillus spp.; conditions: cited from earlier work
[19] = tested on: Branhamella (Moraxella) catarrhalis; conditions: Branhamella (Moraxella) catarrhalis (β-lactamase producer); in µg/mL (unit assumed); cited from earlier work
[20] = tested on: Streptococcus spp.; conditions: unit assumed; cited from earlier work
[21] = tested on: Mycoplasma hominis; conditions: cited from earlier work
[22] = tested on: Mycoplasma pneumoniae; conditions: cited from earlier work
[23] = tested on: TLR4 mediated signaling in human umbilical vein endothelial cells (HUVECS); experiment: LOS stimulated IL-8 release from HUVECS; format: cell-based; conditions: HUVECs treated overnight with LOS aggregates (3 ng/ml), soluble CD14 (250 ng/ml), LBP (100 ng/ml); ASL washings or supernatants of transfected 293 cells
Description: FIGS. 2A-2B. Effects of airway surface liquid (ASL), PLUNC, and LPLUNC1 on TLR4 mediated signaling in human umbilical vein endothelial cells (HUVECS). HUVECS in a 24 well dish were exposed to LOS from N. Meningitidis overnight in the presence of SCD14 and LBP. […] Control=media alone. […] Control cells were transfected with a plasmid expressing GFP. The transfection efficiency, based on GFP expression was >75%.
Alternatively, the inventors also consider the possibility that the properties of the proteins may be LBP-like and that their function may depend on the available concentrations. The ability of ASL to inhibit TLR4-mediated signaling in response to N. meningitis lipooligosaccharide (LOS) was tested in human umbilical vein endothelial cells (HUVECs) (Giardina et al., 2001). ASL secretions were recovered from the apical surface of primary cultures of human airway epithelia grown in serum free media by washing the surface with PBS. As show in FIG. 2A, HUVECs treated overnight with LOS aggregates (3 ng/ml) in the presence of soluble CD14 (250 ng/ml) and LBP (100 ng/ml) released significant quantities of IL-8 into the cell culture media. […] To determine whether PLUNC and/or LPLUNC1 have similar effects on TLR4 signaling, the inventors expressed their cDNAs in 293 cells grown in serum free media and harvested supernatants 48 hr following transfection.

[24] = tested on: LOS; experiment: Limulus amebocyte lysate assay, detected LOS; format: biochemical; conditions: proteins from cell free in vitro translation (RTS) or HeLa supernatants, dilutions 1:1 to 1:8; 0.1 ng/ml LOS
[25] = tested on: human peripheral blood mononuclear cells stimulated by N. meniningititis lipo-oligosaccharide (LOS); experiment: LOS stimulation of human peripheral blood mononuclear cells; format: cell-based; conditions: baculovirus culture supernatants, N-terminal tagged proteins, 10 ng/ml N. meniningititis LOS
[26] = tested on: endotoxin from E. coli 0111:B4; experiment: Limulus amebocyte lysate assay, endotoxin spiked with serial dilutions; format: biochemical; conditions: 30 ng E. coli endotoxin/well spiked with serial dilutions of ASL washings or supernatant from LPLUNC1 transfected 293 cells
Description: FIG. 3. ASL and LPLUNC1 inhibit endotoxin activity in the Limulus amebocyte lysate assay. Endotoxin activity contrasted in control media (closed circles, 30 ng E. coli endotoxin/well), or 30 ng endotoxin samples spiked with serial dilutions of ASL washings (closed squares) or cell culture supernatant from LPLUNC1 transfected 293 cells (closed diamonds). 10 EU=1 ng endotoxin.
As confirmation of the endotoxin binding activities of ASL secretions and expressed LPLUNC1, an additional assay was performed. The Limulus amebocyte lystate assay (QCL-1000; BioWhittaker, Walkersville, Md.) was used to determine if these samples inhibited endotoxin activity in this extremely sensitive laboratory test. Lyophilized standard endotoxin from E. coli 0111:B4 in sterile water (chromogenic substrate) was spiked with serial dilutions of ASL washings, or supernatants from LPLUNC1 transfected cells. Endotoxin concentrations were determined by measuring the change in absorbance at 405 nm, as described previously (Thorne et al., 1999).

[27] = format: binding, N. meningitidis; conditions: recombinant LPLUNC1 C-terminal 6HIS incubated with 14C-LOS for 1 hr; versus Ad empty control supernatant
[28] = Staphylococcus aureus (penicillin susceptible)
[29] = Neisseria gonorrhoeae (non β-lactamase producer)
[30] = Haemophilus influenzae (non β-lactamase producer)
[31] = Haemophilus influenzae (penicillin resistant)
[32] = Haemophilus influenzae (penicillin susceptible)
[33] = Haemophilus influenzae (β-lactamase producer)

CC[C@H]1OC(=O)[C@H](C)[C@@H](O[C@H]2C[C@@](C)(OC)[C@@H](O)[C@H](C)O2)[C@H](C)[C@@H](O[C@@H]2O[C@H](C)C[C@H](N(C)C)[C@H]2O)[C@](C)(O)C[C@@H](C)C(=O)[C@H](C)[C@@H](O)[C@]1(C)O [ERYTHROMYCIN, erythromycin]
MIC50 ([1]; Staphylococcus aureus (methicillin susceptible)): 0.5 µg/mL (≈ 0.681 µM) | MIC50 [1, 28]: 0.5 µg/mL (≈ 0.681 µM) | MIC90 [1, 28]: 0.5 µg/mL (≈ 0.681 µM) | MIC50 ([1]; Staphylococcus aureus): 0.5 µg/mL (≈ 0.681 µM) | MIC50 [2]: 2 µg/mL (≈ 2.73 µM) | Range (of MIC) ([3]; in µg/mL (unit assumed)): 0.03-0.25 and 0.015-0.06 | MIC50 ([3]; unit assumed): 0.03 µg/mL (≈ 0.0409 µM) | MIC90 ([3]; unit assumed): 0.03 µg/mL (≈ 0.0409 µM) | Range (of MIC) ([4]; in µg/mL (unit assumed)): 0.25-16 | MIC50 ([4]; unit assumed): 1 µg/mL (≈ 1.36 µM) | MIC90 ([4]; unit assumed): 8 µg/mL (≈ 10.9 µM) | MIC50 [5]: 0.06 and 0.03 | MIC90 [5]: 0.03 and 0.06 | Range (of MIC) [5]: 0.03-0.25 and 0.015-0.06 and 0.015-0.25 | Range (of MIC) ([6]; in µg/mL (unit assumed)): 0.5-8 | MIC50 ([6]; unit assumed): 2 µg/mL (≈ 2.73 µM) | MIC90 ([6]; unit assumed): 4 µg/mL (≈ 5.45 µM) | MIC50 [7]: 1 µg/mL (≈ 1.36 µM) | MIC90 [8, 29]: 1 and 2 | Range (of MIC) [8, 29]: 0.03-2 and 0.015-4 | MIC90 ([8]; Neisseria gonorrhoeae (β-lactamase producer)): 2 and 4 | MIC90 ([8]; Neisseria gonorrhoeae): 1 | Range (of MIC) ([8]; Neisseria gonorrhoeae): 0.0075-8 | MIC50 [9]: 0.03 µg/mL (≈ 0.0409 µM) | MIC90 [9]: 0.06 µg/mL (≈ 0.0818 µM) | MIC50 [10]: 0.06 and 0.03 | Range (of MIC) ([11]; in µg/mL (unit assumed)): 4-32 | MIC50 ([11]; unit assumed): 8 µg/mL (≈ 10.9 µM) | MIC90 ([11]; unit assumed): 32 µg/mL (≈ 43.6 µM) | MIC50 [12, 30]: 2 and 4 | MIC90 [12, 30]: 4 and 8 | MIC50 [12, 31]: 8 | MIC90 [12, 31]: 16 | Range (of MIC) [12, 31]: 8-16 | MIC50 [12, 32]: 8 | MIC90 [12, 32]: 16 | Range (of MIC) [12, 32]: 0.25-16 | MIC50 [12, 33]: 4 and 2 | MIC90 [12, 33]: 8 and 4 | MIC50 ([12]; Haemophilus influenzae): 2 and 1 | MIC90 ([12]; Haemophilus influenzae): 2 and 4 | Range (of MIC) ([12]; Haemophilus influenzae): 0.5-8 | MIC50 [13]: 0.5 µg/mL (≈ 0.681 µM) | MIC50 [14]: 0.004 µg/mL (≈ 0.00545 µM) | MIC90 [14]: 0.06 µg/mL (≈ 0.0818 µM) | Range (of MIC) ([15]; in µg/mL (unit assumed)): 0.25-16 | MIC50 ([15]; unit assumed): 0.5 µg/mL (≈ 0.681 µM) | MIC90 [16]: 4 and 2 | Range (of MIC) [16]: 0.5-8 | Range (of MIC) ([17]; in µg/mL (unit assumed)): 0.5-8 | MIC50 ([17]; unit assumed): 1 µg/mL (≈ 1.36 µM) | MIC90 ([17]; unit assumed): 8 µg/mL (≈ 10.9 µM) | Range (of MIC) ([18]; in µg/mL (unit assumed)): 0.03-2 | MIC90 ([18]; unit assumed): 2 µg/mL (≈ 2.73 µM) | Range (of MIC) [19]: 0.06-1 and 0.03-0.25 and 0.06-8 | MIC50 [20]: 0.03 µg/mL (≈ 0.0409 µM)

CCC[C@@H]1C[C@@H](C(=O)N[C@@H]([C@H]2O[C@H](SC)[C@H](O)[C@@H](O)[C@H]2O)[C@@H](C)O)N(C)C1 [LINCOMYCIN, lincomycin]
Range (of MIC) ([1]; Staphylococcus aureus, in µg/mL (unit assumed)): 0.5-512 | MIC50 ([1]; Staphylococcus aureus): 1 µg/mL (≈ 2.46 µM) | MIC90 ([1]; Staphylococcus aureus): 1 µg/mL (≈ 2.46 µM) | Range (of MIC) ([21]; in µg/mL (unit assumed)): 0.5-16 | MIC50 ([21]; unit assumed): 2 µg/mL (≈ 4.92 µM) | MIC90 ([21]; unit assumed): 4 µg/mL (≈ 9.84 µM) | Range (of MIC) ([22]; in µg/mL (unit assumed)): 2-32 | MIC50 ([22]; unit assumed): 8 µg/mL (≈ 19.7 µM) | MIC90 ([22]; unit assumed): 32 µg/mL (≈ 78.7 µM)

B1: PLUNC: human palate, lung, and nasal epithelium clone protein, 256 amino acids; tested as recombinant culture supernatant or in vitro translation product (protein, UniProt Q9NP55 20-256, looked up)
BPI fold-containing family A …: QFGGLPVPLDQTLPLNVNPALPLSPTGLAGSLTNALSNGLLSGGLLGILENLPLLDILKPGGGTSGGLLGGLLGKVTSVIPGLNNIIDIKVTDPQLLELGLVQSPDGHRLYVTIPLGIKLQVNTPLVGASLLRLAVKLDITAEILAVRDKQERIHLVLGDCTHSPGSLQISLLDGLGPLPIQGLLDSLTGILNKVLPELVQGNVCPLVNEVLRGLDITLVHDIVNMLIHGLQFVIKV
effect on LOS stimulated IL-8 release from HUVECS [23]: dampened IL-8 secretion | detectable level of LOS [24]: dose-dependent decrease in detected LOS | effect on responsiveness of PBMC to LOS stimulation [25]: LBP-like pro-inflammatory activity | effect on responsiveness of PBMC to LOS stimulation ([25]; listed as SPLUNC1): enhanced the LOS signaling

B2: LPLUNC1: human long PLUNC protein, 484 amino acids; tested as recombinant culture supernatant, in vitro translation product or 6HIS tagged protein (protein, UniProt Q8TDL5 22-484, looked up)
BPI fold-containing family B …: TLSPTAVLILGPKVIKEKLTQELKDHNATSILQQLPLLSAMREKPAGGIPVLGSLVNTVLKHIIWLKVITANILQLQVKPSANDQELLVKIPLDMVAGFNTPLVKTIVEFHMTTEAQATIRMDTSASGPTRLVLSDCATSHGSLRIQLLHKLSFLVNALAKQVMNLLVPSLPNLVKNQLCPVIEASFNGMYADLLQLVKVPISLSIDRLEFDLLYPAIKGDTIQLYLGAKLLDSQGKVTKWFNNSAASLTMPTLDNIPFSLIVSQDVVKAAVAAVLSPEEFMVLLDSVLPESAHRLKSSIGLINEKAADKLGSTQIVKILTQDTPEFFIDQGHAKVAQLIVLEVFPSSEALRPLFTLGIEASSEAQFYTKGDQLILNLNNISSDRIQLMNSGIGWFQPDVLKNIITEIIHSILLPNQNGKLRSGVPVSLVKALGFEAAESSLTKDALVLTPASLWKPSSPVSQ
effect on LOS stimulated IL-8 release from HUVECS [23]: dampened IL-8 secretion | detectable level of LOS [24]: dose-dependent decrease in detected LOS | inhibition of endotoxin activity [26]: inhibited endotoxin activity in a dose dependent fashion | effect on responsiveness of PBMC to LOS stimulation [25]: BPI-like inhibitory effects; also recorded: dampened the proinflammatory effect of LOS | 14C-LOS recovered with nickel resin [27]: Significantly more LOS was recovered
